According to PMC7504751, “Potential of 2-Chloro-N-(4-fluoro-3-nitrophenyl)acetamide Against Klebsiella pneumoniae and In Vitro Toxicity Analysis” (Molecules, 2020):
Values after ≈ are worked out from the molar mass of the structure shown. “Also recorded” adds a separate entry of the source. Where two headings read alike, the source gives them in different places. One block for each compound: values may come before it.

Key:
Candida albicans = test system: Candida albicans; set-up: method as in doi:10.4067/S0717-97072003000400005; details: cited from earlier work
K. pneumoniae strains = assay: Minimum inhibitory concentration (MIC), broth microdilution; type: cell-based, Klebsiella pneumoniae
Description: The clinical isolates strains of K. pneumoniae were used in this study belong to the MICOTECA of the Antibacterial and Antifungal Activity Research Laboratory of the Federal University of Paraíba, Brazil, which are: KP-25, KP-26, KP-56, KP-83, KP-87, KP-138, KP-143, KP-166, KP-173, KP-176, KP-260, and KP-326. The American Type Culture Collection strain ATCC-700603 was used as controls. For use in the assays, bacterial suspensions were prepared in 0.9% saline solution, from fresh cultures, and adjusted to the McFarland standard 0.5 scale.
To assess the antibacterial activity of substances A1 and A2, the minimum inhibitory concentration against K. pneumoniae strains was determined. The substances were solubilized in dimethyl sulfoxide (DMSO) at 5% and Tween-80 at 2%, to obtain emulsions in the concentrations necessary for use in the tests. The MIC determination was performed using the broth microdilution technique in a 96-well plate to obtain different concentrations of A1 and A2 [35]. In parallel, controls for sterility, cell viability, and interference of the vehicles used in the preparation of substance emulsions (DMSO and Tween-80) were also performed. MIC is defined as the lowest concentration capable of causing complete inhibition of bacterial growth after 24 h at 35 ± 2 °C.

oral mucosa cells = assay: Genotoxic effects on oral mucosa cells; type: cell-based, human; details: positive control, hydrogen peroxide 0.0005%
Description: The tests were performed according to the recommendations established by the Code of Ethics of the World Medical Association, after approval by the ethics committee of the Centro Universitário de Patos (number: 3621284). Blood samples (types A, B, and O) and smears of oral mucosa were donated by young, healthy adults. First, the oral mucosa cells were collected from the donors, which was done with a cyto-brush (smear collector) in the cheek area, and the material obtained was placed in 5 mL of 0.9% NaCl. As controls, cells treated with hydrogen peroxide −0.0005% (positive control) and untreated cells (negative control) were used. The cells were washed twice with saline and centrifuged for 10 min at 400× g and kept in saline. After the third wash, the cells were exposed (ex vivo) to A2 substance at 50, 100, 500, and 1000 µg/mL concentrations for 30 min. The material was centrifuged and the supernatant was discarded before smear preparation. The cells were homogenized in a vortex and placed on the slides at room temperature for drying for 15 min. Then, they were fixed with methanol: acetic acid (3:1) for 15 min and stained with 2% Giemsa.

SMILES: O=C(CCl)Nc1ccccc1O [2-chloro-N-(2-hydroxyphenyl) acetamide]
C. albicans strains inhibited (Candida albicans): 96.6%

melting point: 142 to 144 °C | MIC (K. pneumoniae strains; Klebsiella pneumoniae, ATCC700603, strain ATCC-700603, 24 h at 35 ± 2 °C, read-out: MIC): 1020 µg/mL (≈ 5.17 mM) | MIC (K. pneumoniae strains; Klebsiella pneumoniae, 100% of the K. pneumoniae strains used in this study, read-out: MIC): 1020 µg/mL (≈ 5.17 mM) | MIC (K. pneumoniae strains; Klebsiella pneumoniae, strain KP-138, 24 h at 35 ± 2 °C, read-out: MIC): 1020 µg/mL (≈ 5.17 mM) | MIC (K. pneumoniae strains; strain KP-25, 24 h at 35 ± 2 °C): 1024 µg/mL (≈ 5.17 mM) | MIC (K. pneumoniae strains; strain KP-26, 24 h at 35 ± 2 °C): 1024 µg/mL (≈ 5.17 mM) | MIC (K. pneumoniae strains; strain KP-56, 24 h at 35 ± 2 °C): 1024 µg/mL (≈ 5.17 mM) | MIC (K. pneumoniae strains; strain KP-83, 24 h at 35 ± 2 °C): 1024 µg/mL (≈ 5.17 mM) | MIC (K. pneumoniae strains; strain KP-87, 24 h at 35 ± 2 °C): 1024 µg/mL (≈ 5.17 mM) | MIC (K. pneumoniae strains; strain KP-143, 24 h at 35 ± 2 °C): 1024 µg/mL (≈ 5.17 mM) | MIC (K. pneumoniae strains; strain KP-166, 24 h at 35 ± 2 °C): 1024 µg/mL (≈ 5.17 mM) | MIC (K. pneumoniae strains; strain KP-173, 24 h at 35 ± 2 °C): 1024 µg/mL (≈ 5.17 mM) | MIC (K. pneumoniae strains; strain KP-176, 24 h at 35 ± 2 °C): 1024 µg/mL (≈ 5.17 mM) | MIC (K. pneumoniae strains; strain KP-260, 24 h at 35 ± 2 °C): 1024 µg/mL (≈ 5.17 mM) | MIC (K. pneumoniae strains; strain KP-326, 24 h at 35 ± 2 °C): 1024 µg/mL (≈ 5.17 mM)
SMILES: CC(=O)Nc1ccc(F)c([N+](=O)[O-])c1 [A1, N-(4-fluoro-3-nitrophenyl)acetamide]

SMILES: CC(=O)Nc1ccccc1O [N-(2-hydroxyphenyl) acetamide]
antimicrobial activity against Candida albicans (Candida albicans): did not have the ability to inhibit fungal growth; also recorded: absence of activity

SMILES: OO [PC-H2O2, hydrogen peroxide, reference compound]
Binucleation (oral mucosa cells): 1.00% | Karyolysis (oral mucosa cells): 7.00% | Karyorrhexis (oral mucosa cells): 10.75% | Micronucleus (oral mucosa cells): 6.50% | Normal (oral mucosa cells): 77.75%
